Experimental data reported in PMC7033278, “A Nonpeptide Oxytocin Receptor Agonist for a Durable Relief of Inflammatory Pain” (Scientific Reports, 2020).

Tests used:
[1] = test system: CFA-induced mechanical hyperalgesia; assay: mechanical sensitivity, calibrated forceps, CFA model; assay type: in vivo; conditions: rat
Method: LIT-001 was prepared as described in Frantz et al.[20]. […] LIT-001 or vehicle were injected intraperitoneally (i.p.), in a volume of 10 ml/kg[20], 24 h after the induction of the CFA-induced painful inflammatory sensitization. To confirm the implication of the OTR we injected (i.p.) also L-368,899 (Sigma, St. Louis, MO) (1 mg/kg), an OTR antagonist, in combination with LIT-001 in another group of rats[11].
Male Wistar rats (300 g; JANVIER LABS, Le Genest St. Isle, France) were used for this study. They were housed by groups of 3 or 4 under standard conditions (room temperature, 22 °C; 12/12 h light/dark cycle) with ad libitum access to food and water and behavioral enrichment. All animals were manipulated and habituated to the tests and to the room for at least 2 weeks. All behavioral tests were done during the light period (i.e., between 7:00 and 19:00). All the procedures were performed in accordance with European committee council Direction, authorization from French Department of Agriculture and from the regional ethic committee.
In all experimentations, to test the animal mechanical sensitivity, we used a calibrated forceps (Bioseb, Chaville, France) previously developed in our laboratory (Figs. 2, 3 and S2, S3)[32]. Briefly, the habituated rat is loosely restrained with a towel masking the eyes in order to limit stress by environmental stimulations. The tips of the forceps are placed at each side of the paw and a graduate force is applied. The pressure producing a withdrawal of the paw, or in some rare cases a vocalization of the animal, corresponded to the nociceptive threshold value. This manipulation was performed three times for each hindpaw and the values were […].
In order to induce a peripheral inflammation, 100 μl of complete Freund adjuvant (CFA; Sigma, St. Louis, MO), was injected in the right hindpaw of the rat. All CFA injections were performed under light isoflurane anesthesia (3%).

CYP 2C9 = biological target: T1, CYP 2C9 (Homo sapiens, UniProt P11712); assay: cytochrome inhibition, human liver microsomes; assay type: in vitro ADME; conditions: 0.03-100 μM
T1 construct: phosphate buffer containing human liver microsomes (0.2 mg/ml); from tissue; host or cells: human liver microsomes
T1 sequence (P11712 whole entry): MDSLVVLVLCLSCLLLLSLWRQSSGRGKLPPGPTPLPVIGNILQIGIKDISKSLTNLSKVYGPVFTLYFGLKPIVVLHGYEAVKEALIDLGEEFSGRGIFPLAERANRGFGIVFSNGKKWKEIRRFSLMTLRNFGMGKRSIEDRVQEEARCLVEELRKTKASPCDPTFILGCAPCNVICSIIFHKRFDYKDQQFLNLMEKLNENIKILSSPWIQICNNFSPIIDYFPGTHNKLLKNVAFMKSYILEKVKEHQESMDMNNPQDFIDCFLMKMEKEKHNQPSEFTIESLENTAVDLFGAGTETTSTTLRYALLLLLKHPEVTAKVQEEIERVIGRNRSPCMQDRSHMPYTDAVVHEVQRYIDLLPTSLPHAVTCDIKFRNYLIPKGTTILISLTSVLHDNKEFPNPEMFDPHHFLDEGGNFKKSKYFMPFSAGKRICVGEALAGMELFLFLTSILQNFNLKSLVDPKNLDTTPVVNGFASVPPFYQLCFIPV
Method: (§1) Cytochrome inhibition by LIT-001 was studied as follows. A stock solution of LIT-001 at 10 mM in DMSO was prepared and stored at 4 °C. Solutions containing the cytochrome substrates and control inhibitors or LIT-001 were prepared. 2 μl of substrate-inhibitor solutions were mixed with 176 μl of phosphate buffer containing human liver microsomes (0.2 mg/ml), 1 mM of NADPH and 3 mM of MgCl2. Height concentrations were tested: 0.03; 0.1; 0.3; 1; 3; 10; 30 and 100 μM. The reaction was initiated by addition of the co-factor after 5 min of incubation at 37 °C. After one hour of incubation, 200 μl of acetonitrile were added to stop enzymatic reactions and solubilize the products. Different control inhibitors were used and supernatants were analyzed by LC-MS/MS (UHPLC separation; Shimadzu LC-MS 8030). • Furafylline (CYP 1A2 inhibitor): 0.03; 0.1; 0.3; 1; 3; 10; 30 and 100 μM • Sulfaphenazole (CYP 2C9 inhibitor): 0.03; 0.1; 0.3; 1; 3; 10; 30 and 100 μM • Tranylcypromine (CYP 2C19 inhibitor): 0.03; 0.1; 0.3; 1; 3; 10; 30 and 100 μM • Quinidine (CYP […] inhibitor): 0.003; 0.01; 0.1; 0.5; 1; 5; 10 and 50 μM • Kétoconazole (CYP 3A4 inhibitor): 0.003; 0.01; 0.1; 0.5; 1; 5; 10 and 50 μM

CYP 3A4 = biological target: T2, CYP 3A4 (Homo sapiens, UniProt P08684); assay: cytochrome inhibition, human liver microsomes; assay type: in vitro ADME
T2 construct: phosphate buffer containing human liver microsomes (0.2 mg/ml); from tissue; host or cells: human liver microsomes
T2 sequence (P08684 whole entry): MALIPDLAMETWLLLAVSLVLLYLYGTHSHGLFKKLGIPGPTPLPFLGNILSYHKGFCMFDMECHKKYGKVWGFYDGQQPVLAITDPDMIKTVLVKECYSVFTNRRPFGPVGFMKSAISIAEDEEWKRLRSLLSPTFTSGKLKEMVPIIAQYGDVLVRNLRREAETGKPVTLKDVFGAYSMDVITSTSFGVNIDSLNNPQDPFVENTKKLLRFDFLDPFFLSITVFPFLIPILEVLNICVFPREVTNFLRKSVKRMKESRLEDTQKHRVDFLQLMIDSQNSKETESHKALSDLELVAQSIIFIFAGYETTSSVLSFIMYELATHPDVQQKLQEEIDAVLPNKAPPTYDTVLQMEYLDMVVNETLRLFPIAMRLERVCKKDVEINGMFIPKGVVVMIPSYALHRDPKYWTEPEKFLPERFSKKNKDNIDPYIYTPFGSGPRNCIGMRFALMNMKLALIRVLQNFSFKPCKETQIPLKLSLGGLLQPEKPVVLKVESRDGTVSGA
Method: as §1

CYP 2D6 = biological target: T3, CYP 2D6 (Homo sapiens, UniProt P10635); assay: cytochrome inhibition, human liver microsomes; assay type: in vitro ADME; conditions: 0.03-100 μM
T3 construct: phosphate buffer containing human liver microsomes (0.2 mg/ml); from tissue; host or cells: human liver microsomes
T3 sequence (P10635 whole entry): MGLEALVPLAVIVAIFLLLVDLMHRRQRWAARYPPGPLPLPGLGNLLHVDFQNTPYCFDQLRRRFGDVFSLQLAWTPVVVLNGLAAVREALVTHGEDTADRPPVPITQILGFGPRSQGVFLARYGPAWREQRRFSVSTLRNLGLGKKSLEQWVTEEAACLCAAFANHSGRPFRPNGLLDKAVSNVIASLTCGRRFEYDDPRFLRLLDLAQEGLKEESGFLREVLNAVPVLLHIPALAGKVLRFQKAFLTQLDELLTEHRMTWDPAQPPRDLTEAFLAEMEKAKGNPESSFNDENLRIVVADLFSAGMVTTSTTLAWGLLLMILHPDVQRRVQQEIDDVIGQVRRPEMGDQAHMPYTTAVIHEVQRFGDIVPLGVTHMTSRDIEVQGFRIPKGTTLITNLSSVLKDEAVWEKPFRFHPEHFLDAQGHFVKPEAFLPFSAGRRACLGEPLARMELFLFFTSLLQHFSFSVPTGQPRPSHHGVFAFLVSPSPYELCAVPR
Method: as §1

CYP 1A2 = biological target: T4, CYP 1A2 (Homo sapiens, UniProt P05177); assay: cytochrome inhibition, human liver microsomes; assay type: in vitro ADME
T4 construct: phosphate buffer containing human liver microsomes (0.2 mg/ml); from tissue; host or cells: human liver microsomes
T4 sequence (P05177 whole entry): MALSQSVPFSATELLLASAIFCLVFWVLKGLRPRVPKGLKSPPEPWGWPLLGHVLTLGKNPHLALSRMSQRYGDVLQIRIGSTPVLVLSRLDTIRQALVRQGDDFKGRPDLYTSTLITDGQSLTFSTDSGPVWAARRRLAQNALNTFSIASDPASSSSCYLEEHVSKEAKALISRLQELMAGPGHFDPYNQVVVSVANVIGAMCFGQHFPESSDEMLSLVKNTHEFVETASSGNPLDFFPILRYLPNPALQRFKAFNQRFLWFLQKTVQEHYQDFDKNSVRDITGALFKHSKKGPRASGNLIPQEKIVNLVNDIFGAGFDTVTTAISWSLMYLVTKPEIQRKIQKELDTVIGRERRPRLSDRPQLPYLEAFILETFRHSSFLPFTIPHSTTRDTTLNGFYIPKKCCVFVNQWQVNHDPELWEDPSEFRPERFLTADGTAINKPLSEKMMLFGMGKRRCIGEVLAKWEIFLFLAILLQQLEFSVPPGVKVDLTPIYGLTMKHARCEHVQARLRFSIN
Method: as §1

CYP 2C19 = biological target: T5, CYP 2C19 (Homo sapiens, UniProt P33261); assay: cytochrome inhibition, human liver microsomes; assay type: in vitro ADME
T5 construct: phosphate buffer containing human liver microsomes (0.2 mg/ml); from tissue; host or cells: human liver microsomes
T5 sequence (P33261 whole entry): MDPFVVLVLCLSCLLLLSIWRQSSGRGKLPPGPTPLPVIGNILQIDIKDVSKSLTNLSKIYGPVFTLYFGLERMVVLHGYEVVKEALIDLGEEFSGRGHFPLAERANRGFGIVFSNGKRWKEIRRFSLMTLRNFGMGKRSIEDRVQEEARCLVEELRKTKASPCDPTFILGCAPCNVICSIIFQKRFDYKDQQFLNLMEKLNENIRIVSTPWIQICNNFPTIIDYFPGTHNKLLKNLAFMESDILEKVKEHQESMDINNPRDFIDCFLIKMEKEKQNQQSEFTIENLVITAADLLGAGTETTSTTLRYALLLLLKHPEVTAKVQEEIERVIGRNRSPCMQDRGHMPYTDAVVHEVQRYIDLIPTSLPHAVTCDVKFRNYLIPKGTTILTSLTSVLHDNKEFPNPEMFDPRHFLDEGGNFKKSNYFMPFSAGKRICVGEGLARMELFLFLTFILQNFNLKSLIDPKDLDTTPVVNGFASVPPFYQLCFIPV
Method: as §1

dopamine transporter = biological target: T6, dopamine transporter (Rattus norvegicus, UniProt P23977); assay: uptake inhibition, rat brain synaptosomes; assay type: biochemical; conditions: 5 μM
T6 construct: transporters from rat brain synaptosomes; tissue Eurofins (contract assay); host or cells: rat brain synaptosomes
T6 sequence (P23977 whole entry): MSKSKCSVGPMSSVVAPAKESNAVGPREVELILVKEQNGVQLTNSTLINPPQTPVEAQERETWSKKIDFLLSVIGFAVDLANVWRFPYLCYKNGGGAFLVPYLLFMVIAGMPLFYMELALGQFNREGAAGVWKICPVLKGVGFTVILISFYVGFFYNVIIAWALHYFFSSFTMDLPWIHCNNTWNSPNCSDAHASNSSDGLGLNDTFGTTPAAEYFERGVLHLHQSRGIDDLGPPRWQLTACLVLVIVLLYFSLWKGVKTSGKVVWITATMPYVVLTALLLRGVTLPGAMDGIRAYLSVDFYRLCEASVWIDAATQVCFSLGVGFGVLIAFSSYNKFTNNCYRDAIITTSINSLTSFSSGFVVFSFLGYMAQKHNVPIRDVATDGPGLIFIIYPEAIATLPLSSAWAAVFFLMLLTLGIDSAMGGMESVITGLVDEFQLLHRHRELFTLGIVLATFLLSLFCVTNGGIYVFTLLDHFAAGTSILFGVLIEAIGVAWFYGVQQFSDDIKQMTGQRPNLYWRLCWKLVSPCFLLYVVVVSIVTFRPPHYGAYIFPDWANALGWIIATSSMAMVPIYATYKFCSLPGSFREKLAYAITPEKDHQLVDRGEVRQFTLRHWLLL
Method: (§2) In vitro profiling of LIT-001 was performed by Eurofins as described in the Eurofins SafetyScreen-Functional panel, 2018[31]. The hepatotoxicity of LIT-001 was studied with cryo-preserved mouse hepatocytes. After unfreezing (optiTHAW and optiINCUBATE media, Xenotech) and cell viability control, cells (2 × 10^6 cells/ml) were dispatched in 96 well microtiterplates. LIT-001 was added to reach a concentration 1 μM in the presence of 1 × 10^6 cells/mL in a volume of 100 μl/well. The incubation was stopped at 4, 20, 40, 80 and 120 min in adding 100 μl of acetonitrile at 0 °C. A positive control was treated in the same conditions. All samples were analyzed by UHPLC coupled to a mass spectrometer (Shimadzu LC-MS 8030).

serotonin transporter = biological target: T7, serotonin transporter (Rattus norvegicus, UniProt P31652); assay: uptake inhibition, rat brain synaptosomes; assay type: biochemical; conditions: 5 μM
T7 construct: transporters from rat brain synaptosomes; tissue Eurofins (contract assay); host or cells: rat brain synaptosomes
T7 sequence (P31652 whole entry): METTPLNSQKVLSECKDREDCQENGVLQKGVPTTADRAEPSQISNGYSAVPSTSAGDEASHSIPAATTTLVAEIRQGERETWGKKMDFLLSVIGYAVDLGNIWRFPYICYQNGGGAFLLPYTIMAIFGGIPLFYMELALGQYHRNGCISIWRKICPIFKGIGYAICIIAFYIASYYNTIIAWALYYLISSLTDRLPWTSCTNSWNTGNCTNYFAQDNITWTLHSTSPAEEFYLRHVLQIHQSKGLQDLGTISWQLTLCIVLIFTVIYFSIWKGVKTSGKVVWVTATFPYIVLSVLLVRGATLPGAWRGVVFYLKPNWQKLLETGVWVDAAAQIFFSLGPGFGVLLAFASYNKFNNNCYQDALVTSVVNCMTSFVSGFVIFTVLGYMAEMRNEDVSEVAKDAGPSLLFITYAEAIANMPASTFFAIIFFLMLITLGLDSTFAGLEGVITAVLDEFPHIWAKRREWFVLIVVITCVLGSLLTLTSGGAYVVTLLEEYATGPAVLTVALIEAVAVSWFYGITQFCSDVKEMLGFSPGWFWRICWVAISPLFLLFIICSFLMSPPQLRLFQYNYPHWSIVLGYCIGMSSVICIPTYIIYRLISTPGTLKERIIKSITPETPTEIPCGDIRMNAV
Method: as §2

[2] = biological target: T8, noradrenaline transporter (Rattus norvegicus, UniProt Q63380); assay: uptake inhibition, rat brain synaptosomes; assay type: biochemical; conditions: 5 μM
T8 construct: transporters from rat brain synaptosomes; tissue Eurofins (contract assay); host or cells: rat brain synaptosomes
T8 sequence (Q63380 1-617): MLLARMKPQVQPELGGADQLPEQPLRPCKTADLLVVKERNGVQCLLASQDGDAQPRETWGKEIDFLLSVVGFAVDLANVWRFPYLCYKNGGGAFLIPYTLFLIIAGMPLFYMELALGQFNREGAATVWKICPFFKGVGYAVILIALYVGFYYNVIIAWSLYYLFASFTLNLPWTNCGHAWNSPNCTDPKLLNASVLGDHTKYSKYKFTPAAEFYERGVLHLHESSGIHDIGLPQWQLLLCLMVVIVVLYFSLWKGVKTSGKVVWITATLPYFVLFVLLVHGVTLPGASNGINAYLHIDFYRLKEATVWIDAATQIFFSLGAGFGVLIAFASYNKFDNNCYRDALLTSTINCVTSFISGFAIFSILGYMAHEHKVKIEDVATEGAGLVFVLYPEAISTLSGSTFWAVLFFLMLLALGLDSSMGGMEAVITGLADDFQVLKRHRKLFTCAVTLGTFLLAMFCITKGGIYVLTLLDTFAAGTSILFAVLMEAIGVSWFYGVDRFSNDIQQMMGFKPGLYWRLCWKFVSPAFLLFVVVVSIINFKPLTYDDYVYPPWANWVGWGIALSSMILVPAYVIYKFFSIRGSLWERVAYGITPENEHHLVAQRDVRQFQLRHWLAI
Method: as §2

[3] = i.p., D1 after CFA, measured 1 hour after injection

SMILES: Cc1cc(C(=O)N2Cc3cnn(C)c3Nc3ccccc32)ccc1CNC(=O)N1CCC[C@H]1C(=S)N(C)C [LIT-001]
- mechanical threshold, NaCl-injected hindpaw (control animals) ([1]; 10 mg/kg i.p.): 526 ± 20 g
- mechanical threshold, hindpaw contralateral to CFA (cCFA) ([1]; 10 mg/kg i.p.): 531 ± 25 g
- antinociceptive action on contralateral hindpaw ([1]; 0.1-15 mg/kg i.p., mechanical and thermal heat, 1 hour after injection): none of the doses tested seem to exert an antinociceptive action
- relative-to-baseline AUC, mechanical threshold, CFA-injected hindpaw ([1]; i.p. LIT-001 10 mg/kg at D1 after CFA): 152 ± 11%
- mechanical threshold, CFA-injected hindpaw ([1]; i.p. LIT-001 10 mg/kg at D1 after CFA, 3 h post i.p.): 246 ± 22 g
- dose at which analgesic effect reaches a plateau, mechanical hypersensitivity [1, 3]: 10 mg/kg
- dose of first analgesic action, mechanical hypersensitivity [1, 3]: 5 mg/kg
- interaction with CYP 2C9 (CYP 2C9): did not interact
- IC50 (CYP 3A4): 11 µM
- interaction with CYP 2D6 (CYP 2D6): did not interact
- IC50 (CYP 1A2): 51 µM
- IC50 (CYP 2C19): 21 µM
- dopamine uptake blockade (dopamine transporter): no significant uptake blockade
- serotonin uptake blockade (serotonin transporter): no significant uptake blockade
- noradrenaline uptake blockade [2]: no significant uptake blockade
